Results: patent publication EP3042903B1, “Substituted hetero-bicyclic compounds, compositions and medicinal applications thereof” (Impetis Biosciences Ltd., priority 2015, dated 2016)

Key:
[1] = biological target: T1, Recombinant Human Bruton's tyrosine kinase (Btk) (Homo sapiens, UniProt Q06187); assay: Recombinant Human Bruton's tyrosine kinase (Btk) inhibition assay (HTRF KinEASE-TK); format: biochemical; settings: 20 ng/ml rhBtk, 77 µM ATP (KM), 1 µM TK-Biotin Substrate, 90 minutes; read-out: IC50 (nM) in recombinant hBTK assay
T1 construct: Full length human BTK (hBTK, Genbank#NM_000061.2) was cloned into pFastBac-HTB vector; 6XHis (N); made in house; host or cells: Sf9 cells (Bac-to-Bac baculovirus expression system)
T1 sequence (Q06187 whole entry): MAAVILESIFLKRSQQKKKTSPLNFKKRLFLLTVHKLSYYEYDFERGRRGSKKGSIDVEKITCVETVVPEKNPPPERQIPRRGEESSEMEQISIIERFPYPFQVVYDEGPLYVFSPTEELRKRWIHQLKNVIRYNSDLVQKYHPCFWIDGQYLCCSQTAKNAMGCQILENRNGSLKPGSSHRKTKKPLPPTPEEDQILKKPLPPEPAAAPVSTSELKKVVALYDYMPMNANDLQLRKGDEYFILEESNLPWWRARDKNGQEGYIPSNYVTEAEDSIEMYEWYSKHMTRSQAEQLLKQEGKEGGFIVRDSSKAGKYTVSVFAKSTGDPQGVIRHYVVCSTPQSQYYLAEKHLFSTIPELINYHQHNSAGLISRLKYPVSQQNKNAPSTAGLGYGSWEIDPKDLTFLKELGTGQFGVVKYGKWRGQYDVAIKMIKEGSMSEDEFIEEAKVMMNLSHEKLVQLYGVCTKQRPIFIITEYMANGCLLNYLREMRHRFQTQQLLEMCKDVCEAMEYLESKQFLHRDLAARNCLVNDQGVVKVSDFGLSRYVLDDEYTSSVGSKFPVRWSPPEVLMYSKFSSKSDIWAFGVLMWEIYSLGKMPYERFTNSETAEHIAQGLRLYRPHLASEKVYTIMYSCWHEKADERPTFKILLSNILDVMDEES
Description: Recombinant Human Bruton's tyrosine kinase (Btk) inhibition assay.
Full length human BTK (hBTK, Genbank#NM_000061.2) was cloned into pFastBac-HTB vector (Invitrogen, cat#10359-016). hBTK gene was expressed with N'-terminal 6XHis tag in Sf9 cells using Bac-to-Bac ^(R) Baculovirus expression system (Invitrogen, cat#10359-016) and the recombinant protein was purified by Ni-NTA method. The elution buffer for hBTK consisted of 50 mM Hepes pH 8.0, 300 mM NaCl, 10% glycerol, 1 mM dithiothreitol and 200 mM imidazole.
The inhibition assays were performed using the generic tyrosine kinase assay kit from Cis Bio (HTRF® KinEASE - TK™ # 62TK0PEB). The assay is based on the principle of fluorescence resonance energy transfer (FRET) between the Europium Cryptate labeled anti-phosphotyrosine antibody and streptavidin labeled fluorophore, XL-665. In an uninhibited kinase reaction the biotinylated peptide substrate (Tk-Biotin) gets phosphorylated at an intermediate tyrosine site which is captured by anti-phosphotyrosine antibody which eventually acts as a FRET donor. The streptavidin labeled XL-665 binds strongly to the Tk-Biotin substrate and act as a FRET acceptor. The resultant FRET signal is measured at 665 nm. A ratio of this specific fluorescence (665nm) to the background fluorescence (620nm), conferred by the free antibody, is directly proportional to the kinase activity.
The Btk inhibition assays were performed using 20 ng/ml of rhBtk in a final volume of 10µl reaction buffer containing 77 µM ATP and 1 µM TK-Biotin Substrate in 50 mM HEPES pH 7.0, 5mM MgCl2, 1mM DTT, 0.01% Tween 20 and 50nM SEB®; with a range of concentrations of the inhibitors. The kinase reaction was carried out at the KM of ATP (77 µM) as well as that of Tk-Biotin substrate (1 µM). After 90 minutes, the reaction was stopped by addition of SA-XL665 at a concentration of 62.5 nM in HTRF® detection buffer containing EDTA. Finally 5 µL of TK antibody-cryptate was added to the reaction and the plate was incubated for additional 60 minutes. The fluorescence was read using the FlexStation (Molecular Devices) with excitation at 340 nm and emissions at 620nm (for Cryptate) and 665nm (for FRET). A ratio of the 2 emissions was calculated for each well and expressed as follows: Specific signal = Ratio(Sample)−Ratio(Negative) [formula] Ratio = (665nm/620nm) × 10^4 [formula] Mean Ratio = ∑Ratio/3(triplicates) [formula]
For each data point, % inhibition is calculated based on uninhibited reaction which is considered as 100% activity over no enzyme or substrate controls. Dose response data is then fit using a four parameter logistic equation using GraphPad Prism 5 software to determine inhibition constant 50(IC50).

[2] = test system: B cell activation as measured by CD69 expression in Human whole blood; assay: Inhibition of B cell activation as measured by CD69 expression in Human whole blood (flow cytometry); format: cell-based; settings: heparinized human whole blood, anti-IgD antibody 30 µg/mL, 4 hours, CD69 positive cells among CD20 B cells
Description: Inhibition of B cell activation as measured by CD69 expression in Human whole blood
To test the effect of BTK inhibitors in suppressing B-cell receptor (BCR) mediated activation of B cells, we developed a flow cytometry based assay to analyze CD69 expression in B cell population in human whole blood. Freshly collected heparinized human whole blood (60 µL/well) was dispensed in 96-well U bottom plate (Greiner), treated with the test compound at a concentrations ranging from 10 µM to 0.3 nM (half log dilutions). 0.5% DMSO (Sigma, cat#D2650) was used as vehicle control. The whole blood was incubated with compounds for 1 hour, followed by stimulation with anti-IgD antibody (Goat Anti-Human IgD Antibody - affinity purified, Bethyl laboratories, cat#A80-106A) at a final concentration of 30 µg/mL at 37°C and 5% CO2 for 4 hours. Subsequently, 45 µL blood was transferred to 1.5 ml microcentrifuge tubes and 1.2 µL of anti-CD20-PE.Cy5 (BD Biosciences, cat#561761)and 1.6 µL of anti-CD69-PE (eBioscience, cat#12-0691-83) antibody were added and mixed properly by gently tapping the tubes. Blood was stained for 20 minutes at room temperature (RT). After antibody incubation, 1 mL pre-warmed 1X Lyse/Fix solution (BD Biosciences, cat#558049) was added and cells were incubated at RT for 10 minutes. Then the tubes were centrifuged at 450xg for 5 minutes at RT and supernatant was removed. Pellet was disrupted by gentle tapping, cells were washed with 1 mL freshly prepared wash buffer and centrifuged at 450xg for 5 minutes at RT. Supernatant was removed completely before resuspending cells in 200 µl of wash buffer and proceeded for acquisition in Guava Easy Cyte Mini instrument. Acquisition was done with following laser settings: FSC Gain: X 16, FSC fine gain 100%, SSC: 893V, GRN: 663V, YLW: 649V, RED: 802V, Threshold Parameters Offset: FSC 0.73 V Threshold 300 units. The cells were diluted in such a way so that cell conc. should not exceed 500 cells/µL and at least 5000 cells were acquired. Viable lymphocytes were gated from the forward and side scatter profile of cells and B cells were sub-gated based on CD20-PE.Cy5 staining. Percent of CD69-PE positive cells were calculated among B lymphocyte sub-gate using Weasel software. Percent activity for each data point was calculated using following formula: [formula]
(§1) Percentage activity was fit using sigmoid dose response with variable slope logistic equation in GraphPad Prism 5 software to determine IC50.

[3] = test system: B cell activation as measured by CD69 expression in mouse splenocytes; assay: Inhibition of B cell activation as measured by CD69 expression in mouse splenocytes (flow cytometry); format: cell-based; settings: C57/BL6 splenocytes, 3 µg/mL goat anti-mouse IgM, 18-20 hours, CD69 +ve cells within CD19; read-out: IC50 (nM) in B cell activation assay in Mouse spleenocytes
Excerpt: Inhibition of B cell activation as measured by CD69 expression in mouse splenocytes:
To test the effect of BTK inhibitors in suppressing B-cell receptor (BCR) mediated activation of B cells, we developed a flow cytometry based assay to analyze CD69 expression in B cell population among total splenocyte from the mouse. C57/BL6 mouse spleens were dissected out and splenocytes were isolated by mincing the tissue with a syringe plunger followed by RBC lysis (0.85% ammonium chloride, (Qualigens,Cat #21405) and several washes in PBS. Finally, cell were cultured in culture medium [RPMI medium (Sigma, Cat R6504) with 10% FBS (Gibco - Cat #10270).
Test compounds were diluted half log starting from 2 mM in 100% DMSO (Sigma, cat#D2650) (200X). 1x10^5 splenocytes were incubated with 1 µL of diluted test compounds in 200 µL culture medium in a U-bottom 96 well plate (Greiner) at 37°C with 5% CO2 for 30 minutes. Control wells received 1 µL of 100% DMSO without any compound. The cells were stimulated with 3 µg/mL goat anti-mouse IgM (Sigma, cat#M8644) and incubated for 18-20 hours. After the stimulation, cells were washed in cold PBS with 1% FBS and stained with 1:100 dilution of anti-CD69-PE (eBioscience, cat#12-0691-83) and anti-CD19-PE.Cy5 (eBioscience, cat#15-0193-83) for 1 hour on ice. Then the cells were washed 3 times with PBS with 1% FBS and analyzed by Guava Easycyte Mini flow cytometer system (Millipore). Flow cytometry data were analyzed using Weasel software (WEHI, Melbourne). B cells were gated using CD19 marker. Expression of CD69 was analyzed as percentage of CD69 +ve cells within CD19. Percent activity for each data point was calculated using following formula: [formula]
as §1

IC50 [1]: 1.3 nM
IC50 [2]: 124 nM
IC50 [3]: 9 nM
Structure (SMILES): O=C1c2c(F)cc(C3CC3)cc2OCCN1c1cc(F)cc(-c2ccnc3[nH]c(C4=CCN(C5COC5)CC4)cc23)c1CO [Example 8, 8-cyclopropyl-6-fluoro-4-[5-fluoro-2-(hydroxymethyl)-3-[2-[1-(oxetan-3-yl)-3,6-dihydro-2H-pyridin-4-yl]-1H-pyrrolo[2,3-b]pyridin-4-yl]phenyl]-2,3-dihydro-1,4-benzoxazepin-5-one]
